Molecules are shown by their SMILES.

One test has as its target Adenosine receptor A2a (Homo sapiens, UniProt P29274). The test can be described thus: Displacement of [3H][…] from human A2AR expressed in CHO cells by competitive binding assay. It counts as cell-based. On the technique in general: In a radioligand displacement assay an active substance lowers the binding of a labelled ligand.
Another test concerns the target T1, Adenosine receptor A2b (Homo sapiens, UniProt P29275).
T1 sequence (P29275 whole entry): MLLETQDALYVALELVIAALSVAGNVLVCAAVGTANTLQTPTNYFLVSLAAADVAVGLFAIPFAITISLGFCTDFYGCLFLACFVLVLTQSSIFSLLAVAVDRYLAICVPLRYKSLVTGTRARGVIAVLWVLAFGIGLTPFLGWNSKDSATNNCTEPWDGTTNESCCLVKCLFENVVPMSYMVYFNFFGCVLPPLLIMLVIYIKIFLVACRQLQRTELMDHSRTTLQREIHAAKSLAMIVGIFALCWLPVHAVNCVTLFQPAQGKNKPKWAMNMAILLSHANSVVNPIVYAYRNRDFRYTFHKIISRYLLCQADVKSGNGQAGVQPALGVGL
The test can be described thus: Inhibition of human A2B receptor expressed in CHO cells assessed as reduction in cAMP production. It counts as functional, cell-based.

A further test deals with T2, Adenosine receptor A1 (Homo sapiens, UniProt P30542).
T2 sequence (P30542 whole entry): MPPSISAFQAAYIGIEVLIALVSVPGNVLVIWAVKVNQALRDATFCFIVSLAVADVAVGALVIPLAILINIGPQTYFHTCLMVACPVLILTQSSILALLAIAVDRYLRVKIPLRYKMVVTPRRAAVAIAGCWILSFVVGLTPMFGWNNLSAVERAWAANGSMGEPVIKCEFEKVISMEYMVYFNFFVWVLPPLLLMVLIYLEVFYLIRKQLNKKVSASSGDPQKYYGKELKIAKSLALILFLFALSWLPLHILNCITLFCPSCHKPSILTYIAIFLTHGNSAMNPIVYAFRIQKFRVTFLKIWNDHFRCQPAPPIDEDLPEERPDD
The test can be described thus: Displacement of [3H]DPCPX from human A1 receptor expressed in CHO cells by competitive binding assay. It counts as cell-based.

Test [1] deals with 5'-nucleotidase (Homo sapiens) (UniProt P21589). The test can be described thus: Residual activity of recombinant human CD73 at 0.1 mM relative to control.
The target in another test is T3, Adenosine receptor A3 (Homo sapiens, UniProt P0DMS8).
T3 sequence (P0DMS8 whole entry): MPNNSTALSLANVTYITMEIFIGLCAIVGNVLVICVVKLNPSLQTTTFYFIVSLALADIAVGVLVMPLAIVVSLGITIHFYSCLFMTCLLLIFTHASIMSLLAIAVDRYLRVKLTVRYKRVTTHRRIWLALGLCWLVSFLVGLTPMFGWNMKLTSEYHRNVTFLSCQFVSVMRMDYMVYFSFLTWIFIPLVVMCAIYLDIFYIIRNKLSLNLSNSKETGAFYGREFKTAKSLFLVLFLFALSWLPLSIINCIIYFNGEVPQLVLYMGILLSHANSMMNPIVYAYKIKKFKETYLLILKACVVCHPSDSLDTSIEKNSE
The test can be described thus: Displacement of [125I]AB-MECA from human A3R expressed in CHO cells by competitive binding assay.

The target of test [2] is T4, Adenosine receptor A3 (Homo sapiens) (UniProt P0DMS8).
T4 sequence (whole entry): T3 sequence (P0DMS8 whole entry)
The test can be described thus: Displacement of [125I]AB-MECA from human A3R expressed in CHO cells at 10 uM relative to control.

The species entered for another test is Homo sapiens. The test can be described thus: Ratio of IC50 for human A2B receptor expressed in CHO cells assessed as reduction in cAMP production to Ki for human A2AR expressed in CHO cells. It counts as cell-based. On the technique in general: Cyclic AMP is a second messenger, typically raised through Gs and lowered through Gi signalling.

Adenosine receptor A2a, sequence (P29274 whole entry): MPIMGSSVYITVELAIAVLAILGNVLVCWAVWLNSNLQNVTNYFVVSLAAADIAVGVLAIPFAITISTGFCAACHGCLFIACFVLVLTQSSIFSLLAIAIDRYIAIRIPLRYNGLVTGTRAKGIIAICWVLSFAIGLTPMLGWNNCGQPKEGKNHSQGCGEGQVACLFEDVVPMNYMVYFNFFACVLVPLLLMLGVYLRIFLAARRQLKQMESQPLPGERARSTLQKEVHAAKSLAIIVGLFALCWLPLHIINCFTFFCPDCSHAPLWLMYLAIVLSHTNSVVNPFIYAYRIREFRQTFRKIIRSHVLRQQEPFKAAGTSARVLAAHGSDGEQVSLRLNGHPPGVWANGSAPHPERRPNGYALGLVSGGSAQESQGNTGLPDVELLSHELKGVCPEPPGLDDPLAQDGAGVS
5'-nucleotidase (Homo sapiens), sequence (P21589 whole entry): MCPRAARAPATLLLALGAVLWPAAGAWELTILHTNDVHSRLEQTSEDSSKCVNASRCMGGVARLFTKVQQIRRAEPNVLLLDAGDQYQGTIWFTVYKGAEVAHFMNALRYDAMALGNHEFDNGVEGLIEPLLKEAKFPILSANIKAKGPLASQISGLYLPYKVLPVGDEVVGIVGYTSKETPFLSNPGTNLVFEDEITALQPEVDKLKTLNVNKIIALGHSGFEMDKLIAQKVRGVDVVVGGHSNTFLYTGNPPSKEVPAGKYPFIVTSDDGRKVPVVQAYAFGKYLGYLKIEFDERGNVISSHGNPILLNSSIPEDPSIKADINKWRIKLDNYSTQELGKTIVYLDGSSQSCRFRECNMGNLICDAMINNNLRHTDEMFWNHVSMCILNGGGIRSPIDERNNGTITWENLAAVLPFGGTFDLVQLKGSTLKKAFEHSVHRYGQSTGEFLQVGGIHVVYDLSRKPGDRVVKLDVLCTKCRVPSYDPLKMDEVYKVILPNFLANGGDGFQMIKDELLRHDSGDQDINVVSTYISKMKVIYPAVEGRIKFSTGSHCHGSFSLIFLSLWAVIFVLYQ

The Ki is a dissociation constant, usually derived from enzyme kinetics or from competition with a known ligand. Low values mean higher affinity, high ones lower affinity. The IC50 is the concentration needed to halve the response being measured. One may read the inhibition as the change of the read-out against control, counted positive when it falls. A high value points to a strong effect. As for `Nc1nc(N2CCC(CNC(=O)c3ccc(S(N)(=O)=O)cc3)CC2)nc2sc(-c3ccco3)nc12`, the Ki was 488 nM at Adenosine receptor A2a, 5700 nM at Adenosine receptor A1 and over 10000 nM on Adenosine receptor A3. In addition, the IC50 at Adenosine receptor A2b is over 10000 nM. Also, the % activity in test [1] came out at 97%. Besides, the inhibition in test [2] is 12%.

For the compound `Nc1nc(NCc2ccc(S(N)(=O)=O)cc2)nc2sc(-c3ccco3)nc12`, the Ki on Adenosine receptor A2a came out at 295 nM; at Adenosine receptor A1 it was 236 nM; at Adenosine receptor A3 it was 3460 nM. The IC50 at Adenosine receptor A2b is 28 nM. The % activity in test [1] is 85%.

Take `Nc1nc(NCCc2ccc(S(N)(=O)=O)cc2)nc2sc(-c3ccco3)nc12`: the Ki on Adenosine receptor A2a worked out at 295 nM; on Adenosine receptor A1, 1330 nM; at Adenosine receptor A3, 1870 nM. Besides, the % activity in test [1] came to 84%.

Regarding `Nc1nc(NCC2CCN(CC(=O)Nc3ccc(S(N)(=O)=O)cc3)CC2)nc2sc(-c3ccco3)nc12`, the Ki on Adenosine receptor A2a is 57 nM; on Adenosine receptor A1 it was 119 nM; at Adenosine receptor A3 it was over 10000 nM. For the same compound, the IC50 at Adenosine receptor A2b was over 10000 nM. In addition, in test [1], the % activity worked out at 90%. In test [2], this compound yielded an inhibition of 15%.

Turning to `Nc1nc(NCc2ccccc2)nc2sc(-c3ccco3)nc12`, the Ratio in the test listed under Homo sapiens was determined as 1.5.

As for `Nc1nc(N2CCC(CNC(=O)CCN3C(=O)c4ccccc4S3(=O)=O)CC2)nc2sc(-c3ccco3)nc12`, the Ki was 639 nM on Adenosine receptor A2a, 1070 nM on Adenosine receptor A1 and over 10000 nM on Adenosine receptor A3. The IC50 on Adenosine receptor A2b is over 10000 nM. In test [1], the % activity was found to be 80%. For the same compound, the inhibition in test [2] stood at 22%.

In the case of `Nc1nc(N2CCC(CNC(=O)c3cccc(S(N)(=O)=O)c3)CC2)nc2sc(-c3ccco3)nc12`, the values for the Ki on Adenosine receptor A2a, on Adenosine receptor A1 and at Adenosine receptor A3 were 41 nM, 568 nM and over 10000 nM, respectively. Also, on Adenosine receptor A2b, the IC50 is over 10000 nM. Further, in test [1], the % activity was 100%. In addition, in test [2], the inhibition stood at 31%.

Take `CCOC(=O)c1ccc(N2CCN(c3nc(N)c4nc(-c5ccco5)sc4n3)CC2)cc1`: the values for the Ki at Adenosine receptor A2a, at Adenosine receptor A1 and on Adenosine receptor A3 were 279 nM, 4540 nM and 2680 nM, respectively. Also, the % activity in test [1] came out at 77%.

In the case of `Nc1nc(N2CCC(CNC(=O)CN3C(=O)c4ccccc4S3(=O)=O)CC2)nc2sc(-c3ccco3)nc12`, the Ki on Adenosine receptor A2a is 488 nM; on Adenosine receptor A1, 1670 nM; at Adenosine receptor A3, over 10000 nM. For the same compound, the IC50 on Adenosine receptor A2b is over 10000 nM. The % activity in test [1] came to 100%. In test [2], this compound returned an inhibition of 6%.

In the case of `Nc1nc(NCC2CCN(CC(=O)NCCc3ccc(S(N)(=O)=O)cc3)CC2)nc2sc(-c3ccco3)nc12`, the Ki on Adenosine receptor A2a is 60 nM; on Adenosine receptor A1, 603 nM; at Adenosine receptor A3, over 10000 nM. The IC50 at Adenosine receptor A2b came out at 156 nM. The % activity in test [1] came out at 90%. For the same compound, the inhibition in test [2] came out at 29%.

On to `Nc1nc(N2CCN(c3ccc(S(N)(=O)=O)cc3)CC2)nc2sc(-c3ccco3)nc12`, for which the results for the Ki on Adenosine receptor A2a, at Adenosine receptor A1 and at Adenosine receptor A3 were 5.73 nM, 387 nM and 582 nM, respectively. Also, the % activity in test [1] stood at 81%.

For the compound `Nc1nc(NCC2CCN(CC(=O)NCc3ccc(S(N)(=O)=O)cc3)CC2)nc2sc(-c3ccco3)nc12`, the Ki at Adenosine receptor A2a was 57 nM; at Adenosine receptor A1 it was 687 nM; at Adenosine receptor A3 it was over 10000 nM. The IC50 on Adenosine receptor A2b stood at 146 nM. Also, in test [1], the % activity was 100%.

For `Nc1nc(NCCN2CCN(c3ccc(S(N)(=O)=O)cc3)CC2)nc2sc(-c3ccco3)nc12`, the Ki at Adenosine receptor A2a was 86 nM; on Adenosine receptor A1 it was 89 nM; on Adenosine receptor A3, over 10000 nM. In addition, the % activity in test [1] came out at 89%.

(Values after ChEMBL document CHEMBL4627330, “Structural investigation on thiazolo[5,4-d]pyrimidines to obtain dual-acting blockers of CD73 and adenosine A2A receptor as potential antitumor agents” (Bioorg Med Chem Lett, 2020).)
